Target: T1, AhR (Cavia porcellus, UniProt Q6J287)
T1 sequence (Q6J287 1-846): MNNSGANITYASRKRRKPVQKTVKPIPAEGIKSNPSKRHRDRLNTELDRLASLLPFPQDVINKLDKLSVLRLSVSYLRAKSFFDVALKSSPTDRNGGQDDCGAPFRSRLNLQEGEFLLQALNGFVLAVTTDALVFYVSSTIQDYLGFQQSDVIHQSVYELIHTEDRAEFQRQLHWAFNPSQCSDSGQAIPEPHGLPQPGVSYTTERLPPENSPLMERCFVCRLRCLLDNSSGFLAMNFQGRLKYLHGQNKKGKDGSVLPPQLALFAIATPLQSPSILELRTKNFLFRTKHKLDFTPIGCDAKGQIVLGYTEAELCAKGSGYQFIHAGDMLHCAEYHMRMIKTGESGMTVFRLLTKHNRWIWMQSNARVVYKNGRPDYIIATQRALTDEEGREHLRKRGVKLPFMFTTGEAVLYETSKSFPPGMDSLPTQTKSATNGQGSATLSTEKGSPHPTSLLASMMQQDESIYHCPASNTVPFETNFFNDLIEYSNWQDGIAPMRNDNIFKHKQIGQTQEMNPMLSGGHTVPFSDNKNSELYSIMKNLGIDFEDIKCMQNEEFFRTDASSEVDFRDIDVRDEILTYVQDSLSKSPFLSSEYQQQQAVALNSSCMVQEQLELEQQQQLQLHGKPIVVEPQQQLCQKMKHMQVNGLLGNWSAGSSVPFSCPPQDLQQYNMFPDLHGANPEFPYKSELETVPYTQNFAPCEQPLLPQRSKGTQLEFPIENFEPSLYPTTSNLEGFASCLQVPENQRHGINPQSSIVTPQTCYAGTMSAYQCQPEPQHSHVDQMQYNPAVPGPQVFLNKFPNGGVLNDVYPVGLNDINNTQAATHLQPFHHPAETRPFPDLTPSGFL
Assay: Receptor capture assay, real-time PCR, rodent cytosol as source of AhR
Type: biochemical
Parameters: EC50 of dose-response curve; other: TCDD and BNF curves performed simultaneously; slope of dose-response curve
Details: TCDD and BNF curves performed simultaneously
Protocol: A set of calibrators consisting of 5000, 2500, 1250, […], 313, 156, and 78 parts per trillion (ppt or pg/ml) 2,3,7,8-tetrachlorodibenzo-p-dioxin (TCDD) was prepared in methanol. In addition to TCDD a set of calibrators for AhR agonist, beta-naphthoflavone (BNF) was prepared and analyzed in the assay. Separately, 25 ul of 1:50,000 dilution of 10 uM stock nucleic acid-tracer was added per 1 ml of rodent cytosol, which was the source of AhR, and was aliquoted into glass tubes. The standards were diluted 1:20 into 50-100 ul of rodent cytosol, and incubated for 1-2 hr at room temperature to 37° C. Following incubation, 40 to 100 ul of the reaction was transferred to each well of the antibody-coated Capture Strip and incubated on a shaking platform for 30 min to 1 hr at room temperature. The Capture Strips were washed 5 times with Wash Buffer B, and aspirated; optionally soaking wells for 30 sec-5 min with wash buffer during each cycle. Taqman® Universal PCR Master Mix, primers, and Taqman® probe (Applied Biosystems, Calif.) were added, and adhesive cover applied. PCR was performed and analyzed using an ABI PRISM® 7700, using default settings: 50° C., 2 min, 95° C. 10 min, and 40 cycles of [95° C., 15 sec, 60° C., 60 sec]. A threshold cycle (Ct) was determined for each reaction The Ct represents the PCR cycle at which an increase in reporter fluorescence above baseline signal can first be detected.

Row | SMILES | slope of dose-response curve | EC50 (read-out: EC50 of dose-response curve) [nM]
1 | O=c1cc(-c2ccccc2)oc2ccc3ccccc3c12 [BNF, beta-naphthoflavone] | −0.7637 | 0.04
2 | Clc1cc2c(cc1Cl)Oc1cc(Cl)c(Cl)cc1O2 [TCDD, 2,3,7,8-tetrachlorodibenzo-p-dioxin] | −1.195 | –
